Patent US5252469A, “Process for producing a transglutaminase derived from streptomyces” (Amano Pharmaceutical Co., Ltd., priority 1990, dated 1993)
Peptide text beside a SMILES is read from it. * marks the point of attachment. Cbz = O=C(OCc1ccccc1)*

The compounds below were run on Enzyme No. 466 (transglutaminase of Streptomyces lavendulae No. 466) (assay: not given). Settings: not given.
Assay type: biochemical
Description: (§1) Measurement of the activity of BTGase is carried out by performing a reaction using benzyloxycarbonyl-L-glutaminyl glycine and hydroxylamine as substrates in the absence of Ca^2+, forming an iron complex with the resulting hydroxamic acid in the presence of trichloroacetic acid, measuring absorption at 525 nm and determining the amount of hydroxamic acid by a calibration curve to calculate the activity. The BTGase activity is measured by the method described below, unless otherwise indicated.
(§2) To 0.05 ml of an enzyme solution is added 0.5 ml of Reagent A and they are mixed with each other. After reacting at 37° C. for 10 minutes, Reagent B is added thereto to discontinue the reaction and form an Fe complex. Thereafter, absorbance is measured at 525 nm. […] Separately, a calibration curve is prepared using L-glutamic acid γ-monohydroxamic acid instead of the enzyme solution, and the amount of hydroxamic acid produced is determined by the difference in absorbance described above. An enzyme activity which produces 1 μmol of hydroxamic acid per 1 minute is defined as 1 unit.
(§3) Each inhibitor was added in a concentration of 1 mM.

Structure (SMILES) | Activity of Enzyme No. 466 with inhibitor | Effect of inhibitor on activity of Enzyme No. 466 (in words)
O=C(O)CI [Monoiodoacetic acid, monoiodoacetic acid] | 87 | inhibited
O=C(O)CN(CCN(CC(=O)O)CC(=O)O)CC(=O)O [EDTA] | 108 | –

Same assay, conditions: 1 mM, 25° C. for 30 minutes; text says all BTGases

Structure (SMILES) | Effect of inhibitor on activity of Enzyme No. 466 (in words)
O=C(O)c1cc[c]([Hg][Cl])cc1 [PCMB, p-chloromercury benzoic acid] | inhibited
CCN1C(=O)C=CC1=O [NEM, N-ethylmaleimide] | inhibited

Same assay, conditions: inhibitor 1 mM, 25° C. for 30 minutes; None = 100

Structure (SMILES) | Activity of Enzyme No. 466 with inhibitor
O=S(=O)(F)Cc1ccccc1 [PMSF, phenylmethylsulfonyl fluoride] | 103
O=C(O)c1cc[c]([Hg][Cl])cc1 [PCMB, p-chloromercury benzoic acid] | 28
CCN1C(=O)C=CC1=O [NEM, N-ethylmaleimide] | 5

Each compound was assayed on Enzyme No. 83 (transglutaminase of Streptomyces sp No. 83) (assay: not given). Settings: not given.
Assay type: biochemical
Description: as §1, §2, §3

Structure (SMILES) | Activity of Enzyme No. 83 with inhibitor | Effect of inhibitor on activity of Enzyme No. 83 (in words)
O=C(O)CI [Monoiodoacetic acid, monoiodoacetic acid] | 92 | inhibited
O=C(O)CN(CCN(CC(=O)O)CC(=O)O)CC(=O)O [EDTA] | 103 | –

Same assay, conditions: 1 mM, 25° C. for 30 minutes; text says all BTGases

Structure (SMILES) | Effect of inhibitor on activity of Enzyme No. 83 (in words)
O=C(O)c1cc[c]([Hg][Cl])cc1 [PCMB, p-chloromercury benzoic acid] | inhibited
CCN1C(=O)C=CC1=O [NEM, N-ethylmaleimide] | inhibited

Same assay, conditions: inhibitor 1 mM, 25° C. for 30 minutes; None = 100

Structure (SMILES) | Activity of Enzyme No. 83 with inhibitor
O=S(=O)(F)Cc1ccccc1 [PMSF, phenylmethylsulfonyl fluoride] | 101
O=C(O)c1cc[c]([Hg][Cl])cc1 [PCMB, p-chloromercury benzoic acid] | 86
CCN1C(=O)C=CC1=O [NEM, N-ethylmaleimide] | 10

What follows are compounds tested against T1, MTGase (transglutaminase of guinea pig liver) (UniProt P08587) (assay: Substrate specificity: reaction of synthetic substrates with hydroxylamine). Settings: Table 9; CBZ-Gln-Gly = 100.
T1 construct: The guinea pig liver-derived transglutaminase was prepared by the method described in Connellan et al; from tissue; host or cells: guinea pig liver
T1 sequence (P08587 2-690 limits assumed): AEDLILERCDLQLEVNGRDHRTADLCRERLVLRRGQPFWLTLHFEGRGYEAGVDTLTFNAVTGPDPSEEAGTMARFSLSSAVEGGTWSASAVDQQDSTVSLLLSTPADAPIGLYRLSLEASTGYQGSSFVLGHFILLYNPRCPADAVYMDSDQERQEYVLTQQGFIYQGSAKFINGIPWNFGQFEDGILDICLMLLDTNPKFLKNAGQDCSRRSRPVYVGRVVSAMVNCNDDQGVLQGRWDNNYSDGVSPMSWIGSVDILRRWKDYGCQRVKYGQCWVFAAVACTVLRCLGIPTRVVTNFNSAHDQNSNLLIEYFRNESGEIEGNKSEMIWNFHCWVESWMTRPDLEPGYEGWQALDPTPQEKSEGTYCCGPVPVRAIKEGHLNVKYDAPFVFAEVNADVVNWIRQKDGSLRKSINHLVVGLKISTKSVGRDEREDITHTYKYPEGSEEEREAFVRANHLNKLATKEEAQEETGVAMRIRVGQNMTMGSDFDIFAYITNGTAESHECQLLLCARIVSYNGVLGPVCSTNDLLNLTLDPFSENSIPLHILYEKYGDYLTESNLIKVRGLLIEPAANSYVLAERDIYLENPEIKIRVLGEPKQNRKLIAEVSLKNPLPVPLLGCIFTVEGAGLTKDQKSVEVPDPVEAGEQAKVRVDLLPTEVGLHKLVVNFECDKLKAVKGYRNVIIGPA
Assay type: biochemical
Description: as §1
(§4) To 0.05 ml of an enzyme solution is added 0.5 ml of Reagent A and they are mixed with each other. After reacting at 37° C. for 10 minutes, Reagent B is added thereto to discontinue the reaction and form an Fe complex. Thereafter, absorbance is measured at 525 nm. As a control, absorbance is measured after reacting a previously thermally inactivated enzyme solution in a similar manner and a difference in absorbance between the control and the enzyme solution is measured. Separately, a calibration curve is prepared using L-glutamic acid γ-monohydroxamic acid instead of the enzyme solution, and the amount of hydroxamic acid produced is determined by the difference in absorbance described above. An enzyme activity which produces 1 μmol of hydroxamic acid per 1 minute is defined as 1 unit.
(§5) Using each BTGase, reactions of various synthetic substrates with hydroxylamine were examined. […] In this case, the concentration of various synthetic substrates is 5 mM. In the table, CBZ, Gln, Gly and Asn are abbreviations for benzyloxycarbonyl group, glutaminyl group, glycyl group and asparaginyl group, respectively.
Next, properties of BTGases are compared to those of guinea pig liver-derived transglutaminase. The guinea pig liver-derived transglutaminase was prepared by the method described in Connellan et al., Journal of Biological Chemistry, Vol. 246, No. 4, pp. 1093-1098 (1971). As will be apparent from Tables 9 and 10, various differences in enzymological properties are noted between transglutaminase of guinea pig liver (hereafter, referred to as MTGase) which has been mainly investigated heretofore and BTGases derived from the genus Streptomyces: in particular, differences are noted in temperature stability, molecular weight, isoelectric point and substrate specificity. Further, a difference is noted in that the BTGases of the present invention act in the presence and absence of Ca^2+. Therefore, the respective enzymes of the present invention are different from MTGase in their properties.

Structure (SMILES) | Substrate specificity (%), MTGase
CCOC(=O)CNC(=O)[C@H](CCC(N)=O)NC(=O)OCc1ccccc1 [CBZ--Gln--Gly--OEt] (Cbz-Gln-Gly-OEt) | 122%
NC(=O)CC[C@H](NC(=O)CNC(=O)OCc1ccccc1)C(=O)NCC(=O)NCC(=O)O [CBZ--Gly--Gln--Gly--Gly] (Cbz-GQGG-OH) | 126%
NC(=O)CC[C@H](NC(=O)OCc1ccccc1)C(=O)O [CBZ--Gln, benzyloxycarbonyl glutamine] | 0%
NC(=O)CC[C@H](NC(=O)OCc1ccccc1)C(=O)NCC(=O)O [CBZ--Gln--Gly, benzyloxycarbonylglutaminyl glycine] (Cbz-Gln-Gly-OH) | 100%
NC(=O)CC[C@H](NC(=O)OCc1ccccc1)C(=O)N[C@@H](CCC(N)=O)C(=O)NCC(=O)O [CBZ--Gln--Gln--Gly] (Cbz-Gln-Gln-Gly-OH) | 288%
NC(=O)C[C@H](NC(=O)OCc1ccccc1)C(=O)NCC(=O)O [CBZ--Asn--Gly, benzyloxycarbonylasparaginyl glycine] (Cbz-Asn-Gly-OH) | 0%

Each compound was assayed on Enzyme No. 466 (transglutaminase of Streptomyces lavendulae No. 466) in the same assay as above. Settings: Table 6; synthetic substrate 5 mM; CBZ-Gln-Gly = 100.
Assay type: biochemical
Description: as §1, §4, §5

Structure (SMILES) | Substrate specificity, Enzyme No. 466 (reactivity of substrate with hydroxylamine)
CCOC(=O)CNC(=O)[C@H](CCC(N)=O)NC(=O)OCc1ccccc1 [CBZ--Gln--Gly--OEt] (Cbz-Gln-Gly-OEt) | 65
NC(=O)CC[C@H](NC(=O)CNC(=O)OCc1ccccc1)C(=O)NCC(=O)NCC(=O)O [CBZ--Gly--Gln--Gly--Gly] (Cbz-GQGG-OH) | 18
NC(=O)CC[C@H](NC(=O)OCc1ccccc1)C(=O)O [CBZ--Gln, benzyloxycarbonyl glutamine] | 0
NC(=O)CC[C@H](NC(=O)OCc1ccccc1)C(=O)NCC(=O)O [CBZ--Gln--Gly, benzyloxycarbonylglutaminyl glycine] (Cbz-Gln-Gly-OH) | 100
NC(=O)CC[C@H](NC(=O)OCc1ccccc1)C(=O)N[C@@H](CCC(N)=O)C(=O)NCC(=O)O [CBZ--Gln--Gln--Gly] (Cbz-Gln-Gln-Gly-OH) | 35
NC(=O)C[C@H](NC(=O)OCc1ccccc1)C(=O)NCC(=O)O [CBZ--Asn--Gly, benzyloxycarbonylasparaginyl glycine] (Cbz-Asn-Gly-OH) | 0

Same assay, conditions: Table 9; CBZ-Gln-Gly = 100

Structure (SMILES) | Substrate specificity (%), Enzyme No. 466
CCOC(=O)CNC(=O)[C@H](CCC(N)=O)NC(=O)OCc1ccccc1 [CBZ--Gln--Gly--OEt] (Cbz-Gln-Gly-OEt) | 65%
NC(=O)CC[C@H](NC(=O)CNC(=O)OCc1ccccc1)C(=O)NCC(=O)NCC(=O)O [CBZ--Gly--Gln--Gly--Gly] (Cbz-GQGG-OH) | 18%
NC(=O)CC[C@H](NC(=O)OCc1ccccc1)C(=O)O [CBZ--Gln, benzyloxycarbonyl glutamine] | 0%
NC(=O)CC[C@H](NC(=O)OCc1ccccc1)C(=O)NCC(=O)O [CBZ--Gln--Gly, benzyloxycarbonylglutaminyl glycine] (Cbz-Gln-Gly-OH) | 100%
NC(=O)CC[C@H](NC(=O)OCc1ccccc1)C(=O)N[C@@H](CCC(N)=O)C(=O)NCC(=O)O [CBZ--Gln--Gln--Gly] (Cbz-Gln-Gln-Gly-OH) | 35%
NC(=O)C[C@H](NC(=O)OCc1ccccc1)C(=O)NCC(=O)O [CBZ--Asn--Gly, benzyloxycarbonylasparaginyl glycine] (Cbz-Asn-Gly-OH) | 0%

Same assay, conditions: substrate 5 mM; text says BTGase (both enzymes)

Structure (SMILES) | Reactivity of synthetic substrate with Enzyme No. 466 (in words)
NC(=O)CC[C@H](NC(=O)OCc1ccccc1)C(=O)O [CBZ--Gln, benzyloxycarbonyl glutamine] | No BTGase reacts
NC(=O)CC[C@H](NC(=O)OCc1ccccc1)C(=O)NCC(=O)O [CBZ--Gln--Gly, benzyloxycarbonylglutaminyl glycine] (Cbz-Gln-Gly-OH) | highest
NC(=O)C[C@H](NC(=O)OCc1ccccc1)C(=O)NCC(=O)O [CBZ--Asn--Gly, benzyloxycarbonylasparaginyl glycine] (Cbz-Asn-Gly-OH) | No BTGase reacts

What follows are compounds tested on Enzyme No. 83 (transglutaminase of Streptomyces sp No. 83) in the same assay as above. Settings: Table 6; synthetic substrate 5 mM; CBZ-Gln-Gly = 100.
Assay type: biochemical
Description: as §1, §4, §5

Structure (SMILES) | Substrate specificity, Enzyme No. 83 (reactivity of substrate with hydroxylamine)
CCOC(=O)CNC(=O)[C@H](CCC(N)=O)NC(=O)OCc1ccccc1 [CBZ--Gln--Gly--OEt] (Cbz-Gln-Gly-OEt) | 61
NC(=O)CC[C@H](NC(=O)CNC(=O)OCc1ccccc1)C(=O)NCC(=O)NCC(=O)O [CBZ--Gly--Gln--Gly--Gly] (Cbz-GQGG-OH) | 10
NC(=O)CC[C@H](NC(=O)OCc1ccccc1)C(=O)O [CBZ--Gln, benzyloxycarbonyl glutamine] | 0
NC(=O)CC[C@H](NC(=O)OCc1ccccc1)C(=O)NCC(=O)O [CBZ--Gln--Gly, benzyloxycarbonylglutaminyl glycine] (Cbz-Gln-Gly-OH) | 100
NC(=O)CC[C@H](NC(=O)OCc1ccccc1)C(=O)N[C@@H](CCC(N)=O)C(=O)NCC(=O)O [CBZ--Gln--Gln--Gly] (Cbz-Gln-Gln-Gly-OH) | 49
NC(=O)C[C@H](NC(=O)OCc1ccccc1)C(=O)NCC(=O)O [CBZ--Asn--Gly, benzyloxycarbonylasparaginyl glycine] (Cbz-Asn-Gly-OH) | 0

Same assay, conditions: Table 9; CBZ-Gln-Gly = 100

Structure (SMILES) | Substrate specificity (%), Enzyme No. 83
CCOC(=O)CNC(=O)[C@H](CCC(N)=O)NC(=O)OCc1ccccc1 [CBZ--Gln--Gly--OEt] (Cbz-Gln-Gly-OEt) | 61%
NC(=O)CC[C@H](NC(=O)CNC(=O)OCc1ccccc1)C(=O)NCC(=O)NCC(=O)O [CBZ--Gly--Gln--Gly--Gly] (Cbz-GQGG-OH) | 10%
NC(=O)CC[C@H](NC(=O)OCc1ccccc1)C(=O)O [CBZ--Gln, benzyloxycarbonyl glutamine] | 0%
NC(=O)CC[C@H](NC(=O)OCc1ccccc1)C(=O)NCC(=O)O [CBZ--Gln--Gly, benzyloxycarbonylglutaminyl glycine] (Cbz-Gln-Gly-OH) | 100%
NC(=O)CC[C@H](NC(=O)OCc1ccccc1)C(=O)N[C@@H](CCC(N)=O)C(=O)NCC(=O)O [CBZ--Gln--Gln--Gly] (Cbz-Gln-Gln-Gly-OH) | 49%
NC(=O)C[C@H](NC(=O)OCc1ccccc1)C(=O)NCC(=O)O [CBZ--Asn--Gly, benzyloxycarbonylasparaginyl glycine] (Cbz-Asn-Gly-OH) | 0%

Same assay, conditions: substrate 5 mM; text says BTGase (both enzymes)

Structure (SMILES) | Reactivity of synthetic substrate with Enzyme No. 83 (in words)
NC(=O)CC[C@H](NC(=O)OCc1ccccc1)C(=O)O [CBZ--Gln, benzyloxycarbonyl glutamine] | No BTGase reacts
NC(=O)CC[C@H](NC(=O)OCc1ccccc1)C(=O)NCC(=O)O [CBZ--Gln--Gly, benzyloxycarbonylglutaminyl glycine] (Cbz-Gln-Gly-OH) | highest
NC(=O)C[C@H](NC(=O)OCc1ccccc1)C(=O)NCC(=O)O [CBZ--Asn--Gly, benzyloxycarbonylasparaginyl glycine] (Cbz-Asn-Gly-OH) | No BTGase reacts
